From ChEMBL document CHEMBL1201862, “PubChem BioAssay data set” (2004)
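Briefly, cells in 96-well plates were exposed to five compound concentrations for 48 h, and endpoints were estimated by linear interpolation. Here, GI50 denotes the concentration required for 50% inhibition of growth.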 Calls of active or inactive are those of the source. Cut-off read from the data, not from the text of the source: active = GI50 up to about 1.1 µM and inactive = higher.

Key:
Assay in all cases: NCI anticancer screen, dose series, 48 h
786-0 = tested on: 786-0
A498 = tested on: A498
A549 = tested on: A549
ACHN = tested on: ACHN
BT-549 = tested on: BT-549
CAKI-1 = tested on: CAKI-1
CCRF-CEM = tested on: CCRF-CEM
COLO 205 = tested on: COLO 205
DLD-1 = tested on: DLD-1
DMS-114 = tested on: DMS-114
DMS-273 = tested on: DMS-273
DU-145 = tested on: DU-145
EKVX = tested on: EKVX
HCC 2998 = tested on: HCC 2998
HCT-116 = tested on: HCT-116
HCT-15 = tested on: HCT-15
HL-60 = tested on: HL-60
HOP-18 = tested on: HOP-18
HOP-62 = tested on: HOP-62
HOP-92 = tested on: HOP-92
HT-29 = tested on: HT-29
Hs-578T = tested on: Hs-578T
IGROV-1 = tested on: IGROV-1
K562 = tested on: K562
KM-20L2 = tested on: KM-20L2
KM12 = tested on: KM12
LOX IMVI = tested on: LOX IMVI
LXFL 529 = tested on: LXFL 529
M14 = tested on: M14
M19-MEL = tested on: M19-MEL
MCF7 = tested on: MCF7
MDA-MB-231 = tested on: MDA-MB-231
MDA-MB-435 = tested on: MDA-MB-435
MDA-N = tested on: MDA-N
MOLT-4 = tested on: MOLT-4
Malme-3M = tested on: Malme-3M
NCI-H226 = tested on: NCI-H226
NCI-H23 = tested on: NCI-H23
NCI-H460 = tested on: NCI-H460
NCI-H522 = tested on: NCI-H522
OVCAR-3 = tested on: OVCAR-3
OVCAR-4 = tested on: OVCAR-4
OVCAR-5 = tested on: OVCAR-5
OVCAR-8 = tested on: OVCAR-8
PC-3 = tested on: PC-3
RPMI-8226 = tested on: RPMI-8226
RXF 393 = tested on: RXF 393
RXF 631 = tested on: RXF 631
SF-268 = tested on: SF-268
SF-295 = tested on: SF-295
SF-539 = tested on: SF-539
SK-MEL-28 = tested on: SK-MEL-28
SK-MEL-2 = tested on: SK-MEL-2
SK-MEL-5 = tested on: SK-MEL-5
SK-OV-3 = tested on: SK-OV-3
SN12C = tested on: SN12C
SNB-19 = tested on: SNB-19
SNB-75 = tested on: SNB-75
SNB-78 = tested on: SNB-78
SR = tested on: SR
SW-620 = tested on: SW-620
T47D = tested on: T47D
TK-10 = tested on: TK-10
U-251 = tested on: U-251
UACC-257 = tested on: UACC-257
UACC-62 = tested on: UACC-62
UO-31 = tested on: UO-31
XF498 = tested on: XF498

N=C(N)NS(=O)(=O)c1ccc(NCc2c3ccccc3nc3ccccc23)cc1
GI50 (786-0): 1.07 µM (active)
GI50 (A498): 1.17 µM (inactive)
GI50 (A549): 0.338 µM (active)
GI50 (ACHN): 1.39 µM (inactive)
GI50 (BT-549): 7.16 µM (inactive)
GI50 (CAKI-1): 4.34 µM (inactive)
GI50 (CCRF-CEM): 0.0782 µM (active)
GI50 (COLO 205): > 80.9 µM (inactive)
GI50 (DLD-1): 23.5 µM (inactive)
GI50 (DMS-114): 0.157 µM (active)
GI50 (DMS-273): 2.1 µM (inactive)
GI50 (DU-145): 1.83 µM (inactive)
GI50 (EKVX): 10.4 µM (inactive)
GI50 (HCC 2998): 7.38 µM (inactive)
GI50 (HCT-116): 3.01 µM (inactive)
GI50 (HCT-15): 40.3 µM
GI50 (HL-60): 0.0679 µM (active)
GI50 (HOP-18): 9.18 µM (inactive)
GI50 (HOP-62): 0.678 µM (active)
GI50 (HOP-92): 0.24 µM (active)
GI50 (HT-29): 33.3 µM (inactive)
GI50 (Hs-578T): 1.5 µM (inactive)
GI50 (IGROV-1): 23.4 µM (inactive)
GI50 (K562): 2.72 µM (inactive)
GI50 (KM-20L2): 57.9 µM (inactive)
GI50 (KM12): 6.24 µM (inactive)
GI50 (LOX IMVI): 0.946 µM (active)
GI50 (LXFL 529): 12.8 µM (inactive)
GI50 (M14): 4.67 µM (inactive)
GI50 (M19-MEL): 10 µM (inactive)
GI50 (MCF7): 0.0566 µM (active)
GI50 (MDA-MB-231): 23 µM (inactive)
GI50 (MDA-MB-435): 32.6 µM (inactive)
GI50 (MDA-N): 71.1 µM (inactive)
GI50 (MOLT-4): 0.0308 µM (active)
GI50 (Malme-3M): 4.75 µM (inactive)
GI50 (NCI-H226): 0.421 µM (active)
GI50 (NCI-H23): 1.09 µM (active)
GI50 (NCI-H460): 0.0371 µM (active)
GI50 (NCI-H522): 2.28 µM (inactive)
GI50 (OVCAR-3): 11.6 µM (inactive)
GI50 (OVCAR-4): 39.5 µM (inactive)
GI50 (OVCAR-5): 33.3 µM (inactive)
GI50 (OVCAR-8): 3.78 µM (inactive)
GI50 (PC-3): 16.1 µM (inactive)
GI50 (RPMI-8226): 2.82 µM (inactive)
GI50 (RXF 393): 11.9 µM (inactive)
GI50 (RXF 631): 4.82 µM (inactive)
GI50 (SF-268): 0.679 µM (active)
GI50 (SF-295): 2.45 µM (inactive)
GI50 (SF-539): 0.483 µM (active)
GI50 (SK-MEL-28): 47.3 µM (inactive)
GI50 (SK-MEL-2): > 20 µM (inactive)
GI50 (SK-MEL-5): 2.62 µM (inactive)
GI50 (SK-OV-3): 2.73 µM (inactive)
GI50 (SN12C): 0.637 µM (active)
GI50 (SNB-19): 0.711 µM (active)
GI50 (SNB-75): 0.608 µM (active)
GI50 (SNB-78): 23.1 µM (inactive)
GI50 (SR): 0.0363 µM (active)
GI50 (SW-620): 1.59 µM (inactive)
GI50 (T47D): 1.16 µM (inactive)
GI50 (TK-10): 64.1 µM (inactive)
GI50 (U-251): 0.354 µM (active)
GI50 (UACC-257): 14.5 µM (inactive)
GI50 (UACC-62): 1.1 µM (active)
GI50 (UO-31): 18.6 µM (inactive)

COC(=O)N/N=C/C(=C/Nc1ccccc1)[N+](=O)[O-]
GI50 (786-0): > 100 µM (inactive)
GI50 (A549): > 100 µM (inactive)
GI50 (ACHN): > 100 µM (inactive)
GI50 (CCRF-CEM): > 100 µM (inactive)
GI50 (COLO 205): > 100 µM (inactive)
GI50 (DLD-1): > 100 µM (inactive)
GI50 (DMS-114): > 100 µM (inactive)
GI50 (DMS-273): > 100 µM (inactive)
GI50 (EKVX): > 100 µM (inactive)
GI50 (HCC 2998): > 100 µM (inactive)
GI50 (HCT-116): > 100 µM (inactive)
GI50 (HCT-15): 59 µM
GI50 (HL-60): > 100 µM (inactive)
GI50 (HOP-18): > 100 µM (inactive)
GI50 (HOP-62): > 100 µM (inactive)
GI50 (HOP-92): 21 µM (inactive)
GI50 (HT-29): > 100 µM (inactive)
GI50 (IGROV-1): > 100 µM (inactive)
GI50 (K562): > 100 µM (inactive)
GI50 (KM-20L2): > 100 µM (inactive)
GI50 (LOX IMVI): > 100 µM (inactive)
GI50 (LXFL 529): > 100 µM (inactive)
GI50 (M14): > 100 µM (inactive)
GI50 (M19-MEL): > 100 µM (inactive)
GI50 (MOLT-4): > 100 µM (inactive)
GI50 (NCI-H23): > 100 µM (inactive)
GI50 (NCI-H460): > 100 µM (inactive)
GI50 (NCI-H522): 86.7 µM (inactive)
GI50 (OVCAR-3): > 100 µM (inactive)
GI50 (OVCAR-4): > 100 µM (inactive)
GI50 (OVCAR-8): > 100 µM (inactive)
GI50 (RPMI-8226): > 100 µM (inactive)
GI50 (RXF 393): > 100 µM (inactive)
GI50 (RXF 631): > 100 µM (inactive)
GI50 (SF-268): > 100 µM (inactive)
GI50 (SK-MEL-28): > 100 µM (inactive)
GI50 (SK-MEL-5): > 100 µM (inactive)
GI50 (SK-OV-3): > 100 µM (inactive)
GI50 (SN12C): > 100 µM (inactive)
GI50 (SNB-19): > 100 µM (inactive)
GI50 (SR): > 100 µM (inactive)
GI50 (SW-620): > 100 µM (inactive)
GI50 (TK-10): > 100 µM (inactive)
GI50 (U-251): > 100 µM (inactive)
GI50 (UACC-257): > 100 µM (inactive)
GI50 (UACC-62): 46.2 µM (inactive)
GI50 (UO-31): > 100 µM (inactive)
GI50 (XF498): > 100 µM (inactive)
